Experimental data from patent EP2420510B1, “Nicotinoyl peptide derivatives and cosmetic composition comprising the same” (BIO-FD&C Co., Ltd., priority 2010, dated 2013).
Residues, ends and D or L forms follow the SMILES beside them.

What was measured:
Human fibroblasts = assay: Cytotoxicity test (MTT, cell growth effect); format: cell-based; conditions: 100 µM, 24 hours, MTT absorbance at 570 nm relative to purified water control (=100)
Procedure: (§1) 50 µl of 3-(4,5-dimethylthiazol-2-yl)-2,5-diphenyltetrazolium bromide (MTT, Sigma M5655, USA) solution (2.5 mg/mℓ) was added to the culture solution, followed by further culturing for 3 hours. Then, the culture solution was centrifuged to remove a supernatant, and 200 µl of dimethylsulfoxide (DMSO, Sigma D2650, USA) was added to each well and vortexed for 20 minutes to dissolve formazan crystals formed. 100 µl of the resulting solution was added to a 96-well plate and its absorbance was measured at 570 nm with enzyme-linked immunosorbent assay (ELISA).

[1] = tested on: Human fibroblasts (primary cell line, CCD-986sk); conditions: 100 µM, 24 hours, CCD-986sk fibroblasts, PIP ELISA absorbance at 450 nm relative to purified water control (=100)
Procedure: Human fibroblasts (primary cell line, CCD-986sk) were seeded to a plate and cultured in Dulbecco's modified Eagle's medium (DMEM) supplemented with penicillin (100 IU/ml), streptomycin (100µg/ml) and 10% fetal bovine serum (FBS) at 37 °C with 5% CO2.
The cultured cells were divided to a 48-well plate in 5×10^4 cells/well and cultured for 24 hours. […] The amount of collagen generated in the culture solution was measured with procollagen type I C-peptide (PIP) (Takara, MK101) ELISA.
After 100 µℓ of antibody-PoD conjugate solution was added to each well, 20 µℓ of the culture solution diluted to 1/5 and standard solution were added and cultured at 37 °C for 3 hours. Then, each well was washed four times with 400 µℓ of PBS. 100 µℓ of color coupler was added and cultured at room temperature for 15 minutes. Then, 100 µℓ of IN sulfuric acid was added and the absorbance was measured at 450 nm with a ELISA reader.
Collagen generation activity = (Absorbance of peptide treated group)/(Absorbance of control) X 100 [formula]

iNOS = assay: Anti-inflammatory activity test (iNOS activity inhibition test; nitric oxide by Griess reagent after LPS); format: cell-based, murine; conditions: Mus musculus; amount of nitric oxide produced relative to group treated with LPS only (=100); 100 µM pre-treatment 18 hours, then LPS 24 hours, Raw264.7 cells; read-out: Yields (%)
Procedure: Raw264.7 cells (murine macrophage cell line) were suspended in 10% fetal bovine serum-Dulbecco's modified Eagle's medium (FBS-DMEM) without […] (GIBCO) in […] and seed to a 24-well plate.
Then, […] of lipopolysaccharide (LPS, Sigma) was added and cultured for 24 hours. Afterwards, 100µℓ of the obtained supernatant was added to a 96-well plate and the same amount of Griess reagent (Sigma) was added, followed by light vortexing at room temperature for 10 minutes. The absorbance was measured at 570 nm.
The calibration curve was prepared using sodium nitrite as a standard, and the amount of nitric oxide produced in the culture solution was calculated. […]

[2] = Cytotoxicity test (MTT, cell growth effect); format: cell-based; conditions: human fibroblasts, MTT absorbance at 570 nm relative to purified water control (=100)
Procedure: as §1

| SMILES | Cell Growth Effect (%) (Human fibroblasts) | Collagen Generation Activity (%) [1] [%] | activity at 100 µM (iNOS) [%] | viability at 24 h, 100 µM [2] [%] |
| --- | --- | --- | --- | --- |
| CC(C)C[C@H](NC(=O)[C@H](Cc1ccccc1)NC(=O)CNC(=O)CNC(=O)[C@H](Cc1ccc(O)cc1)NC(=O)c1cccnc1)C(=O)N[C@@H](CCCNC(=N)N)C(=O)N[C@@H](CCCCN)C(=O)N[C@@H](Cc1ccc(O)cc1)C(=O)N1CCC[C@H]1C(=O)N[C@@H](CCCCN)C(=O)O [Example 4, nicotinoyl-decapeptide (tyrosyl-glycyl-glycyl-phenylalanyl-leucyl-arginyl-lysyl-tyrosyl-prolyl-lycine (SEQ ID No:4))] (HELM PEPTIDE1{[O=C(c1cccnc1)[*:2]].Y.G.G.F.L.R.K.Y.P.K}$$$$V2.0) | 98.8 | – | – | – |
| NC(=O)c1cccnc1 [Nicotinamide] | – | 108.8 | 96.1 | 103 |
| CC(C)C[C@H](NC(=O)[C@H](Cc1ccccc1)NC(=O)CNC(=O)CNC(=O)[C@H](Cc1ccc(O)cc1)NC(=O)c1cccnc1)C(=O)O [Example 2, nicotinoyl-pentapeptide (tyrosyl-glycyl-glycyl-Phenylalanyl-leucine (SEO ID No:2))] | 101.3 | – | – | – |
| C[C@@H](O)[C@H](NC(=O)[C@H](CCCCN)NC(=O)c1cccnc1)C(=O)N[C@H](C(=O)N[C@@H](CCCCN)C(=O)N[C@@H](CO)C(=O)O)[C@@H](C)O [Comparative Example 2, nicotinoyl-pentapeptide (lysyl-threonyl-threonyl-lysyl-serine (SEQ ID No:12))] (HELM PEPTIDE1{[O=C(c1cccnc1)[*:2]].K.T.T.K.S}$$$$V2.0) | 97.6 | – | – | – |
| CC(C)C[C@H](NC(=O)[C@H](Cc1ccccc1)NC(=O)CNC(=O)CNC(=O)[C@H](Cc1ccc(O)cc1)NC(=O)c1cccnc1)C(=O)N[C@@H](CCCNC(=N)N)C(=O)N[C@@H](CCCCN)C(=O)N[C@@H](Cc1ccc(O)cc1)C(=O)N1CCC[C@H]1C(=O)O [Example 3, nicotinoyl-nonapeptide (tyrosyl-glycyl-glycyl-phenylalanyl-leucyl-arginyl-lysyl-tyrosyl-proline (SEQ ID No:3))] (HELM PEPTIDE1{[O=C(c1cccnc1)[*:2]].Y.G.G.F.L.R.K.Y.P}$$$$V2.0) | 99.1 | – | – | – |
| O=C(O)CNC(=O)[C@H](CS)NC(=O)CC[C@H](NC(=O)c1cccnc1)C(=O)O [Comparative Example 1, nicotinoyl-tripeptide (γ-glutamyl-cysteinyl-glycine (SEO ID No:13))] | 98.3 | – | – | – |
| CSCC[C@H](NC(=O)[C@H](Cc1ccccc1)NC(=O)CNC(=O)CNC(=O)[C@H](Cc1ccc(O)cc1)NC(=O)c1cccnc1)C(=O)O [Example 1, nicotinoyl-pentapeptide (tyrosyl-glycyl-glycyl-phenylalanyl-methionine (SEQ ID No:1))] | 102.1 | – | – | – |
| O=C(O)c1cccnc1 [Nicotinic acid] | – | 105.2 | 98.8 | 102 |
